Measured values taken from PMC6017046, “Synergistic Promotion on Tyrosinase Inhibition by Antioxidants” (Molecules : A Journal of Synthetic Chemistry and Natural …, 2018).

Experiments:
Mushroom tyrosinase [1] = target: T1, Mushroom tyrosinase (Agaricus bisporus, UniProt C7FF04); assay: Mushroom tyrosinase inhibitory assay, L-tyrosine as substrate; format: biochemical
Experimental: Inhibitory activity against tyrosinase is examined through an improved spectrophotometric method using L-DOPA and L-tyrosine as substrates. […] The reaction mixture is incubated at 37 °C for 15 min. Mushroom tyrosinase (40 µL, 200 units/mL) is added to the reaction mixture and incubated at 30 °C for 20 min.
(§1) Dopachrome formation is monitored at 475 nm with a UV-visible spectrophotometer (MAPADA UV-6100PCS). The rate of the inhibition of tyrosinase activity (I%) is determined according to the following formula: I%=(A2−A1)−(B2−B1)/(A2−A1)×100 where A1 and A2 are the absorbance values of the blank at 475 nm at 0 min and 20 min, respectively, and B1 and B2 is the absorbance levels of the test sample at 475 nm at 0 min and 20 min, respectively.
The 50% inhibition concentration (IC50) value is determined with SPSS 17.0 statistical software (International Business Machines Corporatio, Armonk, NY, USA). All experiments are performed at least in triplicate. Data are analyzed by unpaired Student’s t-test, followed by Dunnett’s multiple comparison test (SPSS version 17.0). P values lower than 0.05 are considered significant. The interactions are calculated using combination index (CI) according to [22]: CI=IC50amix/IC50a+IC50bmix/IC50b where IC50a and IC50b are obtained from pure compounds, and IC50amix is the concentration of individual compound in the mixture that cause 50% inhibition. Obtained CI values equal, smaller, or greater than 1 indicate an additive, synergistic, or antagonistic effect, respectively.

[2] = DPPH free radical-scavenging capacity assay; conditions: 0.1 mmol/L DPPH, 30 min, absorbance 517 nm; read-out: IC50 of antioxidant solutions (DPPH scavenging / DPPH clearance rate)
Experimental: The DPPH free radical-scavenging capacity of the samples are determined according to the method of a previous study with slight modifications. Samples (100l) of various concentrations are added to 100 µL of 0.1 mmol/L DPPH solution in methanol at room temperature. After 30 min, the absorbance is measured at 517 nm with a UV-visible spectrophotometer (MAPADA UV-6100PCS, Shanghai, China). The percentage of free radical (DPPH) scavenging activity (I%) is calculated according to following formula: I%=ODck−ODsample/ODck×100 where ODck is the absorbance of the control reaction, which involves all the reagents except the test compound, and ODsample is the absorbance of the test compound.

Mushroom tyrosinase [3] = target: T1, Mushroom tyrosinase; conditions: ref 1 (GLA), ref 25 (OXYR), ref 26 (RES); cited from earlier work
Mushroom tyrosinase [4] = target: T1, Mushroom tyrosinase; assay: Mushroom tyrosinase inhibitory assay, L-DOPA as substrate; format: biochemical; conditions: read-out: IC50, tyrosinase activity, single compounds
Experimental: The reaction mixture is incubated at 37 °C for 15 min. Subsequently, 40 µL of 100 units/mL mushroom tyrosinase is added to the reaction mixtures and incubated at 37 °C for 20 min. […] The reaction mixture is incubated at 37 °C for 15 min. Subsequently, 40 µL of 5 mM L-DOPA is added to the reaction mixture and incubated at 30 °C for 20 min.
as §1
The 50% inhibition concentration (IC50) value is determined with SPSS 17.0 statistical software (International Business Machines Corporatio, Armonk, NY, USA). All experiments are performed at least in triplicate. Data are analyzed by unpaired Student’s t-test, followed by Dunnett’s multiple comparison test (SPSS version 17.0). P values lower than 0.05 are considered significant. […]

[5] = target: T2, tyrosinase activity of PIG1 cells (Homo sapiens, UniProt P14679); assay: Intracellular tyrosinase activity assay in UVB-irradiated PIG1 cells (L-DOPA oxidation); format: cell-based; conditions: 300 mJ/cm^2 UVB, 24 h, L-DOPA substrate, read-out: IC50, inhibition against tyrosinase activities
T2 construct: The intracellular tyrosinase activity of the PIG1 cells; host or cells: PIG1 immortalized human epidermal melanocytes
T2 sequence (P14679 19-529): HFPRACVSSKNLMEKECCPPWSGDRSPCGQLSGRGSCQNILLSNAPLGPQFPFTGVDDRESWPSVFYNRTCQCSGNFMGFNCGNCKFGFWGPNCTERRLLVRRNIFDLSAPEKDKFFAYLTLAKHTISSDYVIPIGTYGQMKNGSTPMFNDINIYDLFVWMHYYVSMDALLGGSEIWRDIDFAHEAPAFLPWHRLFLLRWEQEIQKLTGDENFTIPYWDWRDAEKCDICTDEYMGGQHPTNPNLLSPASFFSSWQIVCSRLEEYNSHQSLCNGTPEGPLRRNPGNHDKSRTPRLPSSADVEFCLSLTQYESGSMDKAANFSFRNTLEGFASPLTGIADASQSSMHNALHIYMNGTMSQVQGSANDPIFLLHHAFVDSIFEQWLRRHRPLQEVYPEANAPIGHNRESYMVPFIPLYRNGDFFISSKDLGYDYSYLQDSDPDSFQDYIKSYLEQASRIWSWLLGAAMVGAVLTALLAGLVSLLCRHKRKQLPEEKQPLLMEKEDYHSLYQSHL
Experimental: Immortalized human epidermal melanocyte cells from cell line PIG1 are obtained from Shanghai Guandao Bio-engineering Ltd. Co. (Shanghai, China). PIG1 cells are cultured at 37 °C with 5% CO2 in Medium 254 (#M-254-500, Thermo Fisher Scientific, New York, NY, USA) supplemented with human melanocyte growth supplement-2 (Thermo Fisher Scientific, New York, NY, USA) and 5% (v/v) fetal bovine serum (Thermo Fisher Scientific, New York, NY, USA).
The UVB source employed in this study is a Sigma SH4B light therapy device (Shanghai SIGMA High-tech Co., Ltd., Shanghai, China). […] UVB irradiation treatment is conducted when cells reached approximately 70% confluence according to the methods of Zeng et al. [19]. Before UVB irradiation, the supernatant is removed and replaced with PBS. […] The control group receives the same treatment as the UVB group but is not administered any drug.
PIG1 cells (1 × 10^4 cells/well) are seeded in 96-well plates and incubated for 24 h in CO2 until 70–80% confluence is reached. Subsequently, the complete medium is replaced with 100 µL of PBS, and the cells are exposed to 300 mJ/cm^2 UVB irradiation. […] The intracellular tyrosinase activity of the PIG1 cells are estimated by measuring the L-DOPA oxidation capacity according to the method of Rong et al. [21]. […] The products of the reaction are measured by reading the absorbance at 475 nm.

T1 sequence (C7FF04 1-392): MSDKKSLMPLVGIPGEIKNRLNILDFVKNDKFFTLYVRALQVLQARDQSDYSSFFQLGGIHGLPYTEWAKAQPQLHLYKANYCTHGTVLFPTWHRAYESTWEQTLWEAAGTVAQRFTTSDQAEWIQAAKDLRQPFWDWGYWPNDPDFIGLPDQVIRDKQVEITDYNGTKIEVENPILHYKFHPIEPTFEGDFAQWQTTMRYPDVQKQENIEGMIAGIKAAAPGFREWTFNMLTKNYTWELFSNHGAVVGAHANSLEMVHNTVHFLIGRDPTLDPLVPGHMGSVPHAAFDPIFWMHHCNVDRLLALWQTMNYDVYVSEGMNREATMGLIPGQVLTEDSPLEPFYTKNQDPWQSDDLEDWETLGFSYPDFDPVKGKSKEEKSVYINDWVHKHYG

| SMILES | IC50 (Mushroom tyrosinase [1]) | IC50 [2] | mode of tyrosinase inhibition (Mushroom tyrosinase [3]) | IC50 (Mushroom tyrosinase [1]; L-Tyrosine as substrate, read-out: IC50, tyrosinase activity, single compounds) | IC50 (Mushroom tyrosinase [4]) | IC50 [5] |
| --- | --- | --- | --- | --- | --- | --- |
| CC1(C)C=Cc2c(ccc3c2OC[C@@H](c2ccc(O)cc2O)C3)O1 [GLA, Glabridin] | 1.5 ± 0.03 µM | 458 ± 0.037 µM | non-competitive | – | – | – |
| Oc1cc(O)cc(/C=C/c2ccc(O)cc2O)c1 [OXYR, Oxyresveratrol] | 2.5 ± 0.06 µM | 76 ± 0.07 µM | non-competitive | – | – | – |
| CC(c1ccccc1)c1ccc(O)cc1O (centres unmarked) [PR, Phenylethylresorcinol] | – | 119 ± 0.07 µM | non-competitive | 0.28 ± 0.03 µM | 35.5 ± 0.06 µM | – |
| Oc1ccc(/C=C/c2cc(O)cc(O)c2)cc1 [RES, Resveratrol] | 23 ± 0.05 µM | 142 ± 0.03 µM | Kcat or suicide inhibitor | – | – | > 100 µM |
